Laboratory results published in PubChem BioAssay (NCI).
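Abbreviation: GI50, concentration required for 50% inhibition of growth. TGI marks complete inhibition of growth.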

Experiments:
Test in all cases: NCI-60 cell line screen, 384-well format
[1] = tested on: A498 renal
[2] = tested on: HCC-2998 colon
[3] = tested on: IGROV1 ovarian
[4] = tested on: OVCAR-4 ovarian
[5] = tested on: RXF 393 renal
[6] = tested on: NCI-H226 lung
[7] = tested on: RPMI-8226 leukemia
[8] = tested on: HS 578T breast
[9] = tested on: MDA-MB-231 breast
[10] = tested on: KM12 colon
[11] = tested on: NCI/ADR-RES ovarian
[12] = tested on: T-47D breast
[13] = tested on: SW-620 colon
[14] = tested on: OVCAR-3 ovarian
[15] = tested on: MOLT-4 leukemia
[16] = tested on: COLO 205 colon
[17] = tested on: TK-10 renal
[18] = tested on: 786-0 renal
[19] = tested on: DU-145 prostate
[20] = tested on: SK-MEL-28 melanoma
[21] = tested on: HT29 colon
[22] = tested on: MCF7 breast
[23] = tested on: SNB-75 CNS
[24] = tested on: MDA-MB-468 breast
[25] = tested on: SN12C renal
[26] = tested on: NCI-H522 lung
[27] = tested on: OVCAR-8 ovarian
[28] = tested on: SK-MEL-2 melanoma
[29] = tested on: SF-295 CNS
[30] = tested on: EKVX NSCLC
[31] = tested on: NCI-H322M lung
[32] = tested on: SR leukemia
[33] = tested on: BT-549 breast
[34] = tested on: MALME-3M melanoma
[35] = tested on: HOP-62 NSCLC
[36] = tested on: NCI-H23 lung
[37] = tested on: SK-MEL-5 melanoma
[38] = tested on: MDA-MB-435 melanoma
[39] = tested on: SF-268 CNS
[40] = tested on: SK-OV-3 ovarian
[41] = tested on: SNB-19 CNS
[42] = tested on: UACC-62 melanoma
[43] = tested on: OVCAR-5 ovarian
[44] = tested on: HOP-92 NSCLC
[45] = tested on: M14 melanoma
[46] = tested on: ACHN renal
[47] = tested on: HCT-15 colon
[48] = tested on: CAKI-1 renal
[49] = tested on: PC-3 prostate
[50] = tested on: HL-60(TB) leukemia
[51] = tested on: A549 NSCLC
[52] = tested on: NCI-H460 NSCLC
[53] = tested on: U251 glioblastoma
[54] = tested on: SF-539 CNS
[55] = tested on: UACC-257 melanoma
[56] = tested on: CCRF-CEM leukemia

With `CC1(C)CC(O)CC(C)(C)N1O` the GI50 [1] was greater than 100 µM, the TGI [1] was greater than 100 µM and the GI50 [2] was greater than 100 µM. It also gave a TGI [2] greater than 100 µM, a GI50 [3] greater than 100 µM and a TGI [3] greater than 100 µM. For the same compound, the GI50 [4] was 19.9 µM, the TGI [4] was greater than 100 µM and the GI50 [5] was greater than 100 µM. For the same compound, the TGI [5] was greater than 100 µM, the GI50 [6] was greater than 100 µM and the TGI [6] was greater than 100 µM. For the same compound, the GI50 [7] was greater than 100 µM, the TGI [7] was greater than 100 µM and the GI50 [8] was greater than 100 µM. For the same compound, the TGI [8] was greater than 100 µM, the GI50 [9] was greater than 100 µM and the TGI [9] was greater than 100 µM. It also gave a GI50 [10] greater than 100 µM, a TGI [10] greater than 100 µM and a GI50 [11] greater than 100 µM. It also gave a TGI [11] greater than 100 µM, a GI50 [12] greater than 100 µM and a TGI [12] greater than 100 µM. For the same compound, the GI50 [13] was greater than 100 µM, the TGI [13] was greater than 100 µM and the GI50 [14] was 71.7 µM. For the same compound, the TGI [14] was greater than 100 µM, the GI50 [15] was 44.5 µM and the TGI [15] was greater than 100 µM. For the same compound, the GI50 [16] was greater than 100 µM, the TGI [16] was greater than 100 µM and the GI50 [17] was greater than 100 µM. For the same compound, the TGI [17] was greater than 100 µM, the GI50 [18] was greater than 100 µM and the TGI [18] was greater than 100 µM. For the same compound, the GI50 [19] was greater than 100 µM, the TGI [19] was greater than 100 µM and the GI50 [20] was greater than 100 µM. It also gave a TGI [20] greater than 100 µM, a GI50 [21] greater than 100 µM and a TGI [21] greater than 100 µM. The GI50 [22] was greater than 100 µM, the TGI [22] was greater than 100 µM and the GI50 [23] was greater than 100 µM. The TGI [23] was greater than 100 µM, the GI50 [24] was 29.8 µM and the TGI [24] was greater than 100 µM. For the same compound, the GI50 [25] was greater than 100 µM, the TGI [25] was greater than 100 µM and the GI50 [26] was greater than 100 µM. The TGI [26] was greater than 100 µM, the GI50 [27] was greater than 100 µM and the TGI [27] was greater than 100 µM. The GI50 [28] was greater than 100 µM, the TGI [28] was greater than 100 µM and the GI50 [29] was greater than 100 µM. The TGI [29] was greater than 100 µM, the GI50 [30] was greater than 100 µM and the TGI [30] was greater than 100 µM. It also gave a GI50 [31] greater than 100 µM, a TGI [31] greater than 100 µM and a GI50 [32] greater than 100 µM. For the same compound, the TGI [32] was greater than 100 µM, the GI50 [33] was greater than 100 µM and the TGI [33] was greater than 100 µM. For the same compound, the GI50 [34] was greater than 100 µM, the TGI [34] was greater than 100 µM and the GI50 [35] was greater than 100 µM. For the same compound, the TGI [35] was greater than 100 µM, the GI50 [36] was greater than 100 µM and the TGI [36] was greater than 100 µM. It also gave a GI50 [37] greater than 100 µM, a TGI [37] greater than 100 µM and a GI50 [38] greater than 100 µM. The TGI [38] was greater than 100 µM, the GI50 [39] was greater than 100 µM and the TGI [39] was greater than 100 µM. For the same compound, the GI50 [40] was greater than 100 µM, the TGI [40] was greater than 100 µM and the GI50 [41] was greater than 100 µM. It also gave a TGI [41] greater than 100 µM, a GI50 [42] greater than 100 µM and a TGI [42] greater than 100 µM. The GI50 [43] was greater than 100 µM, the TGI [43] was greater than 100 µM and the GI50 [44] was greater than 100 µM. The TGI [44] was greater than 100 µM, the GI50 [45] was greater than 100 µM and the TGI [45] was greater than 100 µM. For the same compound, the GI50 [46] was greater than 100 µM, the TGI [46] was greater than 100 µM and the GI50 [47] was greater than 100 µM. It also gave a TGI [47] greater than 100 µM, a GI50 [48] greater than 100 µM and a TGI [48] greater than 100 µM. It also gave a GI50 [49] greater than 100 µM, a TGI [49] greater than 100 µM and a GI50 [50] greater than 100 µM. The TGI [50] was greater than 100 µM, the GI50 [51] was greater than 100 µM and the TGI [51] was greater than 100 µM. It also gave a GI50 [52] greater than 100 µM, a TGI [52] greater than 100 µM and a GI50 [53] greater than 100 µM. It also gave a TGI [53] greater than 100 µM, a GI50 [54] greater than 100 µM and a TGI [54] greater than 100 µM. For the same compound, the GI50 [55] was greater than 100 µM, the TGI [55] was greater than 100 µM and the GI50 [56] was 47.2 µM. For the same compound, the TGI [56] was greater than 100 µM.
